Columns and labels:
Assay type in all cases: cell-based, Saccharomyces
[1] = system: active dry yeast Uvaferm CEG; test: Duration of fermentation of deficient synthetic must MS70-fa with different added nutrients (Example 3); details: average of duplicates, control without addition 290
Description: 12 fermentations were carried out in parallel and in duplicate on a synthetic must MS70-fa such as described in example 1, and corresponding to a medium deficient in assimilable nitrogen (100 mg/l) and containing 200 g/l of fermentable sugars. The active dry yeast used is the commercial yeast Uvaferm CEG™ inoculated at a dosage of 20 g/hl. The yeast extract is the commercial extract Bacto-yeast extract ref. 0127-01-7 (DIFCO, USA). The vitamins and mineral salts are the standard products available from suppliers.
F1 and 2: Controls in which no yeast extract is added either into the rehydration medium of the yeast or into the fermentation medium. The control rehydration medium is the base medium: water with glucose added at 50 g/l.
F3: Fermentation carried out with the yeast CEG™ rehydrated in the presence of yeast extract (used at a dosage permitting a concentration of 30 g/hl in the must) in the rehydration medium.
F4: Fermentation carried out with the yeast CEG™ rehydrated in a control rehydration medium. The same yeast extract as for F3 is added at the start of alcoholic fermentation directly into the synthetic must MS70-fa in a dosage of 30 g/hl.
F6: Fermentation carried out with the yeast CEG™ rehydrated in a control rehydration medium. […]

[2] = system: active dry yeast Uvaferm PM; test: Industrial fermentation of Airen white wine must in 100 hectolitre vats (Example 7)
Description: (§1) The medium M2 containing the composition C2 has been used to rehydrate the ADYs and culture a fermentation must of a white wine in industrial conditions in a cellar in the region of la Mancha in Spain.
(§2) Assimilable Nitrogen in the must: 225 mg/l (non-Deficient must)
(§3) Fermentations have been carried out in 100 hectolitre vats according to different forms, in order to determine the most favourable conditions. Two types of ADY have been used, on their own or in the presence of other substances jointly added to the musts to encourage fermentation. In particular the influence of diammonium phosphate and a fermentation activator, added to the fermentation medium, has been studied.
(§4) The active dry yeasts Uvaferm™ CEG (Lallemand, Canada) and Uvaferm™ PM (Lallemand, Canada) have been rehydrated with the aid of the medium M2 described in example 6. For each of the two yeasts, 4 tests have been carried out, by adding:
(§5) The fermentation activator used is the activator Fermaid™ (Lallemand, Canada).
(§6) The kinetic profile of these eight fermentations was followed by measuring the density of the must and at the level of the production of a secondary component of fermentation, i.e. acetate. Indeed, acetate is responsible for the volatile acidity of wines which should be minimised in order to obtain good gustative qualities.
(§7) The values presented in table 2 correspond to fermentation times in days for each form.
(§8) The values presented in table 3 correspond to the volatile acidity measured at the end of fermentation by the Duclaux-Gayon method, known to the person skilled in the art.

[3] = system: active dry yeast Uvaferm CEG; test: as above
Description: as §1, §2, §3, §4, §5, §6, §7, §8

[4] = Airen must, 225 mg/l assimilable nitrogen
[5] = at end of fermentation, Duclaux-Gayon method

SMILES	fermentation time, in rehydration medium ([1]; product added in rehydration medium)	fermentation time, at start of fermentation ([1]; product added to must at start of fermentation)	fermentation time [2, 4]	Volatile acidity [2, 5]	fermentation time [3, 4]	Volatile acidity [3, 5]
N.N.O=P(O)(O)O [Di-ammonia phosphate]	280 h	285 h				
N.N.O=P(O)(O)O [Test no. 1]			8 days	0.33 g/L	10 days	0.48 g/L

— patent US20040213889A1, “Method for active dry yeast rehydration and rehydration medium” (priority 2001, published 2004)
